These are literature values, as cited in patent US11564907B2, “Methods and compositions for the treatment of retinopathy and other ocular diseases” (Lankenau Institute for Medical Research, priority 2014, dated 2023).

In this data set the test system is allogeneic mouse concepti. Conditions: pregnant mice; Munn et al. (1998), Mellor et al. (2001).

Take `Cn1cc(C[C@H](N)C(=O)O)c2ccccc21` [1-methyl-tryptophan]: the “rejection of allogeneic mouse concepti” value is listed as “could elicit T cell-dependent rejection of allogeneic mouse concepti”.
